# Patent publication EP0624368A2, “Use of a composition for stimulating the synthesis of glutathione in the manufacture of a medicament for the treatment of acquired immune deficiency syndrome” (priority 1993, dated 1994)
# Columns and labels:
# PBMC = test: Toxicity study (median lethal dose) in PBMC; type: cell-based, human
# Description: (§1) The median lethal doses (LD₅₀) of single treatment of Procysteine® were 5 mM with PBMC, 21 mM with H-9 cells, and 31 mM with MT-2 cells. […] Therefore, both 25 mM or 50 mM of Procysteine® could have caused significant cell mortality in the test cell systems. […] To avoid the misinterpretation of drug antiviral efficacy due to toxicity, an alternative design using lower concentrations of Procysteine® in the combination treatment was performed. […] The HIV p24 assays were performed for analysis.
# HIV-1 (strain IIIB) [1] = test: HIV p24 antigen assay in PBMC (single and combination treatment); type: cell-based; settings: 50 IU/well HIV; for Calculated single treatment ED50: p24 assay
# Description: (§2) Three cell culture systems were used in this study: H-9 cells; MT-2 cells; and normal human peripheral blood mononuclear cells (PBMC). H-9 cells were obtained from Advanced Biotechnology Inc. (ABI). MT-2 cells were obtained from Dr. J. Armstrong of the University of Pittsburgh. MT-2 cells are HTLV-I transformed human T lymphocytes and continuously produce HTLV-I virions. PBMC were obtained from healthy donors, purified by Ficol-Hypaque, and stimulated with PHA mitogen before being used in the efficacy studies. The initial stock of HIV-1 (strain IIIB) used in this study was obtained from ABI and the working stocks were produced.
# (§3) Cells were collected, put into tissue culture plates and incubated with different concentrations of drugs in RPMI 1640 tissue culture medium for 20 minutes prior to HIV challenge. Infection was carried out by inoculating 20-100 HIV infectious units (IU)/well inoculum without removing the drugs. The untreated cells exposed to HIV challenge served as positive controls. The normal untreated uninfected cells served as negative controls.
# (§4) When evaluating the efficacies of drugs in H-9 cells and PBMC systems, only HIV p24 assays were used. To calculate the ED₅₀ values, a second order linear regression was applied on the logarithm of the tested doses of different drugs against the OD readings obtained from either MTT assays or HIV p24 assays.
# (§5) Cells were collected, put into tissue culture plates and incubated with different combinations of drugs for 20 minutes prior to HIV infection in the combined treatment studies. Infection was carried out by inoculating 20-100 HIV IU/well inoculum without removing the drugs. The inocula were the same as the ones used in the single drug treatment to obtain the ED₅₀ values. Both MTT assays and HIV p24 antigen assays were used in evaluation of drug effects in MT-2 cells but only HIV p24 antigen assays were used for H-9 cells or PBMC.
# (§6) Therefore, if the CI is less than 1, it indicates synergism among the tested drugs. Similarly, if the CI is equal to 1, the effects are additive, while a CI value greater than 1 is indicative of an antagonistic effect.
# HIV-1 (strain IIIB) [2] = test: HIV p24 antigen assay in H-9 cells (single and combination treatment); type: cell-based; settings: 80 IU/well HIV; for OD readings at 450 nm (HIV p24 antigen): H-9
# Description: as §2, §3, §4, §5, §6
# HIV-1 (strain IIIB) [3] = test: MTT assay of protection against acute HIV infection in MT-2 cells; type: cell-based; settings: 100 IU/well HIV; for OD readings at 540 nm (MTT assay): MT-2, Day 6 cultures; for Calculated single treatment ED50: MT-2 cells, MTT assay
# Description: as §2, §3
# (§7) Both the MTT assay and HIV p24 ELISA were used for evaluation of drug efficacies with MT-2 cells. The MTT assay is based upon the metabolic reduction of the MTT tetrazolium bromide dye in live cells. The OD readings (at 540 nm) obtained from the MTT assay are inversely correlated to the levels of cell mortality due to HIV infection or the cytotoxic effect of drugs. […] The HIV p24 antigen assay measures the level of HIV antigen present in the sample (i.e., culture supernatant).
# as §4
# H-9 cells = test: Toxicity study (median lethal dose) in H-9 cells; type: cell-based
# Description: as §1
# MT-2 cells = test: Toxicity study (median lethal dose) in MT-2 cells; type: cell-based, human
# Description: as §1
# HIV-1 (strain IIIB) [4] = test: HIV p24 antigen assay in MT-2 cells (single and combination treatment); type: cell-based; settings: 20 IU/well HIV; for OD readings at 450 nm (HIV p24 antigen): MT-2
# Description: as §2, §3, §7, §4, §5, §6
# H-9, MT-2, and PBMC = test: Toxicity study (median lethal dose), all three cell systems together; type: cell-based; settings: range over the cell systems studied in this protocol
# Description: as §1
# mice [5] = test: Bone marrow smear evaluation in treated mice
# mice [6] = test: Bone marrow aspirate count and stem cell colony assay in treated mice; type: in vivo
# Description: Populations of bone marrow colony forming cells were evaluated. Bone marrow was collected and the stem cell assay conducted, as follows: one femur per mouse was cut at the distal and proximal ends. Using a syringe and 25 gauge needle, 5 mL of IMDM media was flushed through the femur into a collection tube (2.5 mL flushed into one end, then 2.5 ml into the other end). The tube was washed using Iscove's Modified Dulbecco's Media containing 20% fetal bovine serum and the cell concentration was adjusted to the desired count for the colony assay.
# In triplicate, the marrow cells were put into a mixture of methylcellulose and plated into 35 mm diameter dishes. The dishes were incubated for approximately 2 weeks (37°C, 5% CO₂, 100% relative humidity) then manually scored under a microscope for myeloid, erythroid, and mixed colonies.
# mice [7] = test: Hematology of terminal blood in mice treated with AZT with or without Procysteine diet; type: in vivo; settings: both sexes, AZT 50 or 500 mg/kg body weight/day by gavage 14 days, 1.0% Procysteine® diet in combination groups, p<0.01
# Description: On study day 17, the animals were anesthetized with methoxyflurane (in a bell jar). When deeply anesthetized, blood was obtained from the abdominal aorta and transferred for hematological analysis into tubes containing an K₂EDTA suspension.
# The following assays were conducted. Leukocyte count Erythrocyte count Total hemoglobin concentration Hematocrit Mean corpuscular volume (MCV) Mean corpuscular hemoglobin (MCH) Mean corpuscular hemoglobin concentration Platelet count Reticulocyte count Differential leukocyte count
# [8] = 10⁴ nucleated cells cultured 14 days
structure (smiles),measurement,setting,value
O=C1N[C@H](C(=O)O)CS1 [Procysteine®],median lethal doses (LD50),PBMC; single treatment,5 mM
same,LD50 value,PBMC; with 1 µM of AZT,8.3 mM
same,OD readings at 450 nm (HIV p24 antigen),HIV-1 (strain IIIB) [1]; 0.023 mM,3.703
same,OD readings at 450 nm (HIV p24 antigen),HIV-1 (strain IIIB) [1]; 0.23 mM,3.057
same,OD readings at 450 nm (HIV p24 antigen),HIV-1 (strain IIIB) [1]; 0.93 mM,2.951
same,OD readings at 450 nm (HIV p24 antigen),HIV-1 (strain IIIB) [1]; 3.75 mM,3.640
same,OD readings at 450 nm (HIV p24 antigen),HIV-1 (strain IIIB) [1]; 15 mM,3.284
same,OD readings at 450 nm (HIV p24 antigen),HIV-1 (strain IIIB) [1]; 60 mM,1.141
same,Calculated single treatment ED50,HIV-1 (strain IIIB) [1],378 mM
same,OD readings at 450 nm (HIV p24 antigen),HIV-1 (strain IIIB) [2]; 0.023 mM,4.133
same,OD readings at 450 nm (HIV p24 antigen),HIV-1 (strain IIIB) [2]; 0.23 mM,4.133
same,OD readings at 450 nm (HIV p24 antigen),HIV-1 (strain IIIB) [2]; 0.93 mM,4.133
same,OD readings at 450 nm (HIV p24 antigen),HIV-1 (strain IIIB) [2]; 3.75 mM,4.133
same,OD readings at 450 nm (HIV p24 antigen),HIV-1 (strain IIIB) [2]; 15 mM,4.099
same,OD readings at 450 nm (HIV p24 antigen),HIV-1 (strain IIIB) [2]; 60 mM,0.767
same,Calculated single treatment ED50,"HIV-1 (strain IIIB) [2]; H-9 cells, p24 assay",653 mM
same,OD readings at 540 nm (MTT assay),HIV-1 (strain IIIB) [3]; 0.023 mM,0.392
same,OD readings at 540 nm (MTT assay),HIV-1 (strain IIIB) [3]; 0.23 mM,0.265
same,OD readings at 540 nm (MTT assay),HIV-1 (strain IIIB) [3]; 0.93 mM,0.283
same,OD readings at 540 nm (MTT assay),HIV-1 (strain IIIB) [3]; 3.75 mM,0.270
same,OD readings at 540 nm (MTT assay),HIV-1 (strain IIIB) [3]; 15 mM,0.308
same,OD readings at 540 nm (MTT assay),HIV-1 (strain IIIB) [3]; 60 mM,0.350
same,Calculated single treatment ED50,HIV-1 (strain IIIB) [3],2.3e+13 mM
same,median lethal doses (LD50),H-9 cells; single treatment,21 mM
same,LD50 value,H-9 cells; with 1 µM of AZT,30 mM
same,LD50 value,MT-2 cells; as quoted in the discussion of ddI combination treatment,31 to 32 mM
same,median lethal doses (LD50),MT-2 cells; single treatment,31 mM
same,LD50 value,MT-2 cells; with 1 µM of AZT,36 mM
same,OD readings at 450 nm (HIV p24 antigen),HIV-1 (strain IIIB) [4]; 0.023 mM,3.269
same,OD readings at 450 nm (HIV p24 antigen),HIV-1 (strain IIIB) [4]; 0.23 mM,3.712
same,OD readings at 450 nm (HIV p24 antigen),HIV-1 (strain IIIB) [4]; 0.93 mM,3.762
same,OD readings at 450 nm (HIV p24 antigen),HIV-1 (strain IIIB) [4]; 3.75 mM,3.649
same,OD readings at 450 nm (HIV p24 antigen),HIV-1 (strain IIIB) [4]; 15 mM,2.825
same,OD readings at 450 nm (HIV p24 antigen),HIV-1 (strain IIIB) [4]; 60 mM,1.675
same,Calculated single treatment ED50,"HIV-1 (strain IIIB) [4]; MT-2 cells, p24 assay",1613 mM
same,median lethal doses (LD50),"H-9, MT-2, and PBMC",5 to 30 mM
Cc1cn([C@H]2C[C@H](N=[N+]=[N-])[C@@H](CO)O2)c(=O)[nH]c1=O [AZT],total count of erythroid series cells in bone marrow smears,"mice [5]; AZT 50 or 500 mg/kg body weight/day, 1.0% Procysteine® diet in combination groups",reduced total count
same,metarubricytes (nonproliferating) in bone marrow smears,mice [5]; AZT-treated,marked reduction
same,rubriblasts in bone marrow smears,mice [5]; AZT-treated,mild reduction
same,nonproliferating compartment of the myeloid series,mice [5]; bone marrow smears,reduction
same,proliferating compartment of the myeloid series,mice [5]; bone marrow smears,significantly increased
same,burst forming units-erythroid for marrow cultures,mice [6]; [8],No group differences
same,total colonies and colony forming units-granulocyte/macrophage,mice [6]; [8],significant induction
same,nucleated cells in bone marrow aspirates,"mice [6]; AZT 50 or 500 mg/kg body weight/day, compared to controls",significant reduction
same,OD readings at 450 nm (HIV p24 antigen),HIV-1 (strain IIIB) [1]; 0.0025 μM,3.405
same,OD readings at 450 nm (HIV p24 antigen),HIV-1 (strain IIIB) [1]; 0.01 μM,2.978
same,OD readings at 450 nm (HIV p24 antigen),HIV-1 (strain IIIB) [1]; 0.04 μM,0.155
same,OD readings at 450 nm (HIV p24 antigen),HIV-1 (strain IIIB) [1]; 0.16 μM,0.163
same,OD readings at 450 nm (HIV p24 antigen),HIV-1 (strain IIIB) [1]; 0.64 μM,0.204
same,Calculated single treatment ED50,HIV-1 (strain IIIB) [1],2.1e-05 mM
same,OD readings at 450 nm (HIV p24 antigen),HIV-1 (strain IIIB) [2]; 0.0025 μM,4.133
same,OD readings at 450 nm (HIV p24 antigen),HIV-1 (strain IIIB) [2]; 0.01 μM,4.133
same,OD readings at 450 nm (HIV p24 antigen),HIV-1 (strain IIIB) [2]; 0.04 μM,4.133
same,OD readings at 450 nm (HIV p24 antigen),HIV-1 (strain IIIB) [2]; 0.16 μM,3.815
same,OD readings at 450 nm (HIV p24 antigen),HIV-1 (strain IIIB) [2]; 0.64 μM,0.358
same,OD readings at 540 nm (MTT assay),HIV-1 (strain IIIB) [3]; 0.0025 μM,0.474
same,OD readings at 540 nm (MTT assay),HIV-1 (strain IIIB) [3]; 0.01 μM,0.641
same,OD readings at 540 nm (MTT assay),HIV-1 (strain IIIB) [3]; 0.04 μM,0.678
same,OD readings at 540 nm (MTT assay),HIV-1 (strain IIIB) [3]; 0.16 μM,0.688
same,OD readings at 540 nm (MTT assay),HIV-1 (strain IIIB) [3]; 0.64 μM,0.946
same,Calculated single treatment ED50,HIV-1 (strain IIIB) [3],5.5e-05 mM
same,"hematological effects in terminal blood (hemoglobin, hematocrit, erythrocyte counts decreased; MCV, MCH increased)",mice [7],Anemia
